Experimental data from patent US20040176387A1, “Method of treating peripheral vascular diseases, peripheral neuropathies, and autonomic neuropathies” (Pfizer Inc, priority 2000, published 2004).

How the values were obtained:
Type in all cases: in vivo, human
[1] = Sildenafil treatment of chronic lower extremity changes secondary to peripheral vascular disease (case report); settings: Patient #2; diabetes mellitus
Description: Patient #2 was suffering from chronic changes of both lower extremities secondary to peripheral vascular disease and diabetes mellitus.

[2] = Sildenafil treatment of diabetic foot ulcer in patients (case reports)
Description: During the treatment of-the erectile dysfunction it was noted that the foot ulcer was healing. This foot ulcer began approximately two years prior and the patient had been through vascular studies, had seen vascular surgeons, podiatrists, and had been in wound care clinics with minimal results at best. They had also been hospitalized for approximately a month on IV antibiotics, etc. and the threat was very real that the patient was going to require a below the knee amputation. The ulcer would appear to be healing at times only to reoccur to its pretreatment size and depth.

[3] = tested on: onychiomycosis (fungal infection of the nailbed); assay: Sildenafil treatment of onychiomycosis (fungal infection of the nailbed) (case report)
Description: In regards to other uses of cycli guanosine 3′,5′-monophosphate type five (cGMP PDE5) inhibitors, including the compound sildenafil, for which we have shown is effective in the treatment of diabetic foot ulcers, it is also within the concept of the present invention to treat other peripheral vascular diseases such as Raynaud's Phenomenon, including CREST syndrome, autoimmune diseases such as systemic lupus erythematosis, rheumatoid diseases and diabetic retinopathies. The treatment of the present invention would also be beneficial in peripheral and autonomic neuropathies or any other disease entity that results from small vessel disease and directly large vessel disease. […] The patient in this case was requesting treatment for erectile dysfunction and again the inventor discovered this unexpected beneficial result. The inventor has observed such results in varied diseases which have the common element of peripheral vascular disease or peripheral neuropathy. The beneficial effect of the method is believed to be due to increase vascular flow of the small vessels which aided the body in healing itself. Patient #4 suffered from erectile dysfunction. They also suffered from onychiomycosis (fungal infection of the nailbed). They were placed on sildenafil treatment taking one 50 mg pill on an as-needed basis.

[4] = Sildenafil treatment of erectile dysfunction in patients (case reports)
Description: Patient #2 was suffering from chronic changes of both lower extremities secondary to peripheral vascular disease and diabetes mellitus. […] Patient #4 suffered from erectile dysfunction. They also suffered from onychiomycosis (fungal infection of the nailbed). They were placed on sildenafil treatment taking one 50 mg pill on an as-needed basis.

[5] = Patient #4, one 50 mg pill on an as-needed basis

CCCc1nn(C)c2c(=O)[nH]c(-c3cc(S(=O)(=O)N4CCN(C)CC4)ccc3OCC)nc12 [sildenafil, 5-[2-ethoxy-5-(4-methylpiperazin 1-ylsulphonyl)-phenyl]-1,6-dihydro-1-methyl-3-propylpyrazolo [4,3-d] pyrimidine-7-one]
chronic changes of both lower extremities secondary to peripheral vascular disease [1]: significantly improved or resolved completely | diabetic foot ulcer size after sildenafil treatment began ([2]; Patient #1, insulin dependent diabetic, sildenafil taken for erectile dysfunction, before daily dosing): the ulcer was decreasing in the size | resolution of diabetic foot ulcer ([2]; Patient #1, 50 mg of sildenafil once a day, ulcer began approximately two years prior): complete resolution of the diabetic food ulcer in one month | reoccurrence of diabetic foot ulcer ([2]; Patient #1, continued on 50 mg once a day for the past two years): without reoccurrence | effectiveness in the treatment of foot ulcers related to diabetes ([2]; general statement, diabetic patients): very effective | fungal infection (onychiomycosis) [3, 5]: cured | onychiomycosis, particularly of the lower extremity ([3]; treated exclusively with sildenafil, without antifungal medication): resolved completely | erectile dysfunction ([4]; Patient #2, diabetes mellitus and peripheral vascular disease): significantly improve | erectile dysfunction [4, 5]: improved
